From patent US20250281457A1, “TREATMENT OR PREVENTION OF DENGUE VIRAL INFECTION” (Janssen Pharmaceuticals, Inc., priority 2022, published 2025)
Read-outs that look alike come from different tables or passages of the source.

Test: Plasma pharmacokinetics with loading dose and weekly or twice weekly maintenance dosing, fed (Example 5)
Assay type: in vivo, human
Settings: human, plasma, oral; for Cmax: read-out: Mean Cmax (SD); for AUC: read-out: Mean AUCτ (SD); for AUC(0-inf): read-out: Mean AUC∞ (SD); for concentration at 72 h: read-out: Mean C72 h (SD)
Method: A pharmaceutical formulation comprising Compound (a) as described in Example 2 (SF2a/b) was administered as an oral dosage form, to healthy adult participants, in a fed state. Four dose regimens were applied: • Panel I (weekly dosing): 450 mg of Compound (a) twice a day (BID) for two days: on day 1 (D1) and on day 2 (D2) (loading dose); and then 900 mg once a week (Q7D), on day 3 (D3), day 10 (D10), day 17 (D17), and on day 24 (D24) (maintenance dose). • Panel II (biweekly dosing): 450 mg of Compound (a) twice a day (BID) for two days: on day 1 (D1) and on day 2 (D2); (loading dose) and then 450 mg once every 3 (Q3D) or 4 days (Q4D): on day 3 (D3), on day 6 (D6), on day 10 (D10), on day 13 (D13), on day 17 (D17), on day 20 (D20), on day 24 (D24), and on day 27 (D27), for a total of 900 mg each week administered through two doses of 450 mg each (maintenance dose). • Panel III (weekly dosing): 150 mg of Compound (a) twice a day (BID) for two days: on day 1 (D1) and on day 2 (D2) (loading dose); and then 300 mg once a week (Q7D): on day 3 (D3), day 10 (D10), day 17 (D17), and on day 24 (D24) (maintenance dose). • Panel IV (biweekly dosing): 150 mg of Compound (a) twice a day (BID) for two days: on day 1 (D1) and on day 2 (D2) (loading dose); and then 150 mg Q3D or Q4D: on day 3 (D3), on day 6 (D6), on day 10 (D10), on day 13 (D13), on day 17 (D17), on day 20 (D20), on day 24 (D24), and on day 27 (D27), for a total of 300 mg each week administered through two doses of 150 mg each (maintenance dose).
Oral dosage forms were administered together with approximately 240 mL of non-carbonated water under fed conditions, and were taken within 10 minutes after completion of normal standardized normal fat breakfast in the morning or after completion of normal standardized normal fat dinner in case of evening dosing. Intake of Compound (a) took place at around the same time each day. Intake of Compound (a) marked time 0 hours.
A standardized normal fat meal was served approximately 30 minutes before study drug intake. The standardized normal fat meal contained approximately 21 g of fat, 67 g of carbohydrates, 19 g of proteins resulting in around 533 kcal (an example meal is 4 slices of bread, 2 slices of ham or cheese, butter, jelly, and 1 or 2 cups (up to 355 mL) of decaffeinated coffee or tea with milk and/or sugar). The standardized normal fat meal was ingested entirely within 30 minutes or less. Within 10 minutes after completing the meal, but no more than 30 minutes after the start of the meal, study drug was administered. In case of Compound (a) intake in the evening, timing of standardized dinner was aligned to time of drug intake. […]
For Study Panel 1 only, additional whole blood samples were be collected on Days 1, 24, 25, 26, 38, 45, 51, and 59 using venipuncture. The whole blood samples were be used for the determination of Compound (a) whole blood concentrations and for determination of Compound (a) plasma concentrations. To determine Compound (a) venous whole blood concentrations, an aliquot of the whole blood sample was be pipetted onto the TASSO M-20 for better comparison with capillary whole blood samples collected by TASSO M-20. […]
Separation between metabolites and interfering endogenous compounds was achieved by injecting 2 μL sample extract onto an Acquity UPLC BEH C18 column (50×2.1 mm, 1.7 μm, Waters) at 50° C. and using 10 mM ammonium bicarbonate solution as mobile phase A, and methanol: acetonitrile (50:50, v/v) as mobile phase B. A gradient elution at a flow rate of 0.600 mL/min was applied using the following program: 35% B was increased to 90% B in 3 min, was further increased to 98% B at 3.01 min and held constant up to 4.00 min.
A Triple Quad 6500+ mass spectrometer (Sciex) equipped with a turbo ion spray source was used for analyte detection in positive ion mode using electrospray ionization. […]

[1] = 450 mg, Panel I (450 mg BID Days 1-2, then 900 mg Q7D; SF2a/b, fed), Day 2
[2] = 450 mg, Panel II (450 mg BID Days 1-2, then 450 mg Q3D/Q4D; SF2a/b, fed), Day 27
[3] = Panel I (450 mg BID Days 1-2, then 900 mg Q7D; SF2a/b, fed), Day 24
[4] = Panel II (450 mg BID Days 1-2, then 450 mg Q3D/Q4D; SF2a/b, fed), Day 2
[5] = Panel III (150 mg BID Days 1-2, then 300 mg Q7D; SF2a/b, fed), Day 24
[6] = Panel IV (150 mg BID Days 1-2, then 150 mg Q3D/Q4D; SF2a/b, fed), Day 2

## COc1cc(NC(C(=O)c2c[nH]c3ccc(OC(F)(F)F)cc23)c2ccc(Cl)cc2OC)cc(S(C)(=O)=O)c1 (stereo not drawn) [Compound (a)]
300 mg, Panel III (150 mg BID Days 1-2, then 300 mg Q7D; SF2a/b, fed), Day 3
  Cmax: 3100 ng/mL
300 mg, Panel III (150 mg BID Days 1-2, then 300 mg Q7D; SF2a/b, fed), Day 3, read-out: Median tmax (min-max)
  Tmax: 5 h
450 mg, Panel I (450 mg BID Days 1-2, then 900 mg Q7D; SF2a/b, fed), Day 1
  AUC: 17.5 µg·h/mL
450 mg, Panel I (450 mg BID Days 1-2, then 900 mg Q7D; SF2a/b, fed), Day 1, read-out: Median tmax (min-max)
  Tmax: 7.5 h
[1]
  AUC: 46.5 µg·h/mL
  Cmax: 5080 ng/mL
450 mg, Panel I (450 mg BID Days 1-2, then 900 mg Q7D; SF2a/b, fed), Day 2, read-out: Median tmax (min-max)
  Tmax: 5.5 h
450 mg, Panel II (450 mg BID Days 1-2, then 450 mg Q3D/Q4D; SF2a/b, fed), Day 1
  Cmax: 1960 ng/mL
450 mg, Panel II (450 mg BID Days 1-2, then 450 mg Q3D/Q4D; SF2a/b, fed), Day 3, read-out: Mean AUC24 h (SD)
  AUC(0-t): 110 µg·h/mL
450 mg, Panel II (450 mg BID Days 1-2, then 450 mg Q3D/Q4D; SF2a/b, fed), Day 3, read-out: Mean AUC72 h (SD)
  AUC(0-t): 263 µg·h/mL
450 mg, Panel II (450 mg BID Days 1-2, then 450 mg Q3D/Q4D; SF2a/b, fed), Day 3
  Cmax: 5950 ng/mL
450 mg, Panel II (450 mg BID Days 1-2, then 450 mg Q3D/Q4D; SF2a/b, fed), Day 3, read-out: Median tmax (min-max)
  Tmax: 6.5 h
450 mg, Panel II (450 mg BID Days 1-2, then 450 mg Q3D/Q4D; SF2a/b, fed), Day 6
  Cmax: 4380 ng/mL
450 mg, Panel II (450 mg BID Days 1-2, then 450 mg Q3D/Q4D; SF2a/b, fed), Day 10
  Cmax: 4080 ng/mL
450 mg, Panel II (450 mg BID Days 1-2, then 450 mg Q3D/Q4D; SF2a/b, fed), Day 13
  Cmax: 4070 ng/mL
450 mg, Panel II (450 mg BID Days 1-2, then 450 mg Q3D/Q4D; SF2a/b, fed), Day 17
  Cmax: 3940 ng/mL
450 mg, Panel II (450 mg BID Days 1-2, then 450 mg Q3D/Q4D; SF2a/b, fed), Day 20
  Cmax: 4060 ng/mL
450 mg, Panel II (450 mg BID Days 1-2, then 450 mg Q3D/Q4D; SF2a/b, fed), Day 24
  Cmax: 3920 ng/mL
450 mg, Panel II (450 mg BID Days 1-2, then 450 mg Q3D/Q4D; SF2a/b, fed), Day 27, read-out: Mean AUC24 h (SD)
  AUC(0-t): 74.2 µg·h/mL
450 mg, Panel II (450 mg BID Days 1-2, then 450 mg Q3D/Q4D; SF2a/b, fed), Day 27, read-out: Mean AUC72 h (SD)
  AUC(0-t): 197 µg·h/mL
450 mg, Panel II (450 mg BID Days 1-2, then 450 mg Q3D/Q4D; SF2a/b, fed), Day 27, read-out: Mean AUClast (SD)
  AUC(0-t): 771 µg·h/mL
[2]
  AUC(0-inf): 809 µg·h/mL
  Cmax: 3980 ng/mL
450 mg, Panel II (450 mg BID Days 1-2, then 450 mg Q3D/Q4D; SF2a/b, fed), Day 27, read-out: Median tmax (min-max)
  Tmax: 6 h
900 mg, Panel I (450 mg BID Days 1-2, then 900 mg Q7D; SF2a/b, fed), Day 3, read-out: Mean AUC24 h (SD)
  AUC(0-t): 129 µg·h/mL
900 mg, Panel I (450 mg BID Days 1-2, then 900 mg Q7D; SF2a/b, fed), Day 3, read-out: Mean AUC72 h (SD)
  AUC(0-t): 318 µg·h/mL
900 mg, Panel I (450 mg BID Days 1-2, then 900 mg Q7D; SF2a/b, fed), Day 3
  Cmax: 6560 ng/mL
900 mg, Panel I (450 mg BID Days 1-2, then 900 mg Q7D; SF2a/b, fed), Day 3, read-out: Median tmax (min-max)
  Tmax: 5 h
Panel I (450 mg BID Days 1-2, then 900 mg Q7D; SF2a/b, fed), Day 1
  Cmax: 2020 ng/mL
Panel I (450 mg BID Days 1-2, then 900 mg Q7D; SF2a/b, fed), Day 10
  Cmax: 4240 ng/mL
Panel I (450 mg BID Days 1-2, then 900 mg Q7D; SF2a/b, fed), Day 17
  Cmax: 4280 ng/mL
Panel I (450 mg BID Days 1-2, then 900 mg Q7D; SF2a/b, fed), Day 24, read-out: Mean AUC24 h (SD)
  AUC(0-t): 79.7 µg·h/mL
Panel I (450 mg BID Days 1-2, then 900 mg Q7D; SF2a/b, fed), Day 24, read-out: Mean AUC72 h (SD)
  AUC(0-t): 195 µg·h/mL
Panel I (450 mg BID Days 1-2, then 900 mg Q7D; SF2a/b, fed), Day 24, read-out: Mean AUClast (SD)
  AUC(0-t): 657 µg·h/mL
[3]
  AUC(0-inf): 676 µg·h/mL
  Cmax: 4260 ng/mL
Panel I (450 mg BID Days 1-2, then 900 mg Q7D; SF2a/b, fed), Day 24, read-out: Median tmax (min-max)
  Tmax: 6 h
Panel II (450 mg BID Days 1-2, then 450 mg Q3D/Q4D; SF2a/b, fed), Day 1
  AUC: 15.5 µg·h/mL
Panel II (450 mg BID Days 1-2, then 450 mg Q3D/Q4D; SF2a/b, fed), Day 1, read-out: Median tmax (min-max)
  Tmax: 5.5 h
[4]
  AUC: 44.9 µg·h/mL
  Cmax: 4640 ng/mL
Panel II (450 mg BID Days 1-2, then 450 mg Q3D/Q4D; SF2a/b, fed), Day 2, read-out: tmax
  Tmax: 5 h
Panel III (150 mg BID Days 1-2, then 300 mg Q7D; SF2a/b, fed), Day 1
  Cmax: 741 ng/mL
Panel III (150 mg BID Days 1-2, then 300 mg Q7D; SF2a/b, fed), Day 10
  Cmax: 2180 ng/mL
Panel III (150 mg BID Days 1-2, then 300 mg Q7D; SF2a/b, fed), Day 17
  Cmax: 2050 ng/mL
Panel III (150 mg BID Days 1-2, then 300 mg Q7D; SF2a/b, fed), Day 24, read-out: Mean AUC24 h (SD)
  AUC(0-t): 37.2 µg·h/mL
Panel III (150 mg BID Days 1-2, then 300 mg Q7D; SF2a/b, fed), Day 24, read-out: Mean AUC72 h (SD)
  AUC(0-t): 92.5 µg·h/mL
Panel III (150 mg BID Days 1-2, then 300 mg Q7D; SF2a/b, fed), Day 24, read-out: Mean AUClast (SD)
  AUC(0-t): 299 µg·h/mL
[5]
  AUC(0-inf): 325 µg·h/mL
  Cmax: 2130 ng/mL
Panel III (150 mg BID Days 1-2, then 300 mg Q7D; SF2a/b, fed), Day 24, read-out: Median tmax (min-max)
  Tmax: 7 h
Panel IV (150 mg BID Days 1-2, then 150 mg Q3D/Q4D; SF2a/b, fed), Day 1
  AUC: 5.98 µg·h/mL
Panel IV (150 mg BID Days 1-2, then 150 mg Q3D/Q4D; SF2a/b, fed), Day 1, read-out: Median tmax (min-max)
  Tmax: 5 h
[6]
  AUC: 15.8 µg·h/mL
  Cmax: 1600 ng/mL
Panel IV (150 mg BID Days 1-2, then 150 mg Q3D/Q4D; SF2a/b, fed), Day 2, read-out: tmax
  Tmax: 5 h
Panel I (450 mg BID Days 1-2, then 900 mg Q7D; SF2a/b, fed), Day 3
  concentration at 72 h: 3440 ng/mL
Panel II (450 mg BID Days 1-2, then 450 mg Q3D/Q4D; SF2a/b, fed), Day 3
  concentration at 72 h: 2710 ng/mL
Panel III (150 mg BID Days 1-2, then 300 mg Q7D; SF2a/b, fed), Day 3
  concentration at 72 h: 1210 ng/mL
Panel IV (150 mg BID Days 1-2, then 150 mg Q3D/Q4D; SF2a/b, fed), Day 3
  concentration at 72 h: 865 ng/mL
